The numbers were not newly measured in US5688824A, “Use of leflunomide to prevent or control xenograft rejection” (priority 1996, dated 1997), which cites them from elsewhere.

Data set [1] has as its system BN heterotopic heart grafts. The note with it: oral 15 mg/kg/day, cited from earlier work.
The conditions of data set [2]: to open-ring form A771726; cited from earlier work.

For the compound `Cc1oncc1C(=O)Nc1ccc(C(F)(F)F)cc1` [leflunomide, N-(4-trifluoromethylphenyl)-5-methylisoxazol-4-carboxamide], the graft vascular disease result in data set [1] (day 50) is given as “had no graft vascular disease”. In addition, the “antibodies directed against BN grafts in sera” value in data set [1] is given as “contained no antibodies directed against the BN grafts”. The conversion after administration entry in data set [2] is reported as “rapidly convened to its active open-ring form”.
